Test results taken from ChEMBL document CHEMBL1148967, “Correction of the structure of a new sesquiterpene from Cistus creticus ssp. creticus” (J Nat Prod, 2004).
The source made the active and inactive calls. No cut-off for these calls is given here.

How the values were obtained:
[1] = system: PBMC; experiment: Cytotoxicity against human PBMC assessed as reduction in growth rate at 100 uM after 48 hrs; format: cell-based
[2] = system: MCF7; experiment: Cytotoxicity against human MCF7 cells assessed as reduction in growth rate at 100 uM after 48 hrs; format: functional; set-up: scale not given: the % may be the effect or the level left
[3] = system: SF-268; experiment: Cytotoxicity against human SF268 cells assessed as reduction in growth rate at 100 uM after 48 hrs; format: functional, cell-based
[4] = system: NCI-H460; experiment: Cytotoxicity against human H460 cells assessed as reduction in growth rate at 100 uM after 48 hrs; format: functional; set-up: scale not given: the % may be the effect or the level left

Compound: C=C(C)[C@H]1CC=C2CCC[C@@H](C)[C@]2(C)C1
- Activity [1]: Non-toxic
- Activity [2]: 93.6%
- Activity [3]: inactive
- Activity [4]: 80.8%
